Data on 19 molecules can be found in patent publication US20240246967A1, “AXL COMPOUNDS” (ARCUS BIOSCIENCES, INC., priority 2021, published 2024).

In assay [1] the target is T1, Axl (Homo sapiens, UniProt P30530).
T1 sequence (P30530 26-894): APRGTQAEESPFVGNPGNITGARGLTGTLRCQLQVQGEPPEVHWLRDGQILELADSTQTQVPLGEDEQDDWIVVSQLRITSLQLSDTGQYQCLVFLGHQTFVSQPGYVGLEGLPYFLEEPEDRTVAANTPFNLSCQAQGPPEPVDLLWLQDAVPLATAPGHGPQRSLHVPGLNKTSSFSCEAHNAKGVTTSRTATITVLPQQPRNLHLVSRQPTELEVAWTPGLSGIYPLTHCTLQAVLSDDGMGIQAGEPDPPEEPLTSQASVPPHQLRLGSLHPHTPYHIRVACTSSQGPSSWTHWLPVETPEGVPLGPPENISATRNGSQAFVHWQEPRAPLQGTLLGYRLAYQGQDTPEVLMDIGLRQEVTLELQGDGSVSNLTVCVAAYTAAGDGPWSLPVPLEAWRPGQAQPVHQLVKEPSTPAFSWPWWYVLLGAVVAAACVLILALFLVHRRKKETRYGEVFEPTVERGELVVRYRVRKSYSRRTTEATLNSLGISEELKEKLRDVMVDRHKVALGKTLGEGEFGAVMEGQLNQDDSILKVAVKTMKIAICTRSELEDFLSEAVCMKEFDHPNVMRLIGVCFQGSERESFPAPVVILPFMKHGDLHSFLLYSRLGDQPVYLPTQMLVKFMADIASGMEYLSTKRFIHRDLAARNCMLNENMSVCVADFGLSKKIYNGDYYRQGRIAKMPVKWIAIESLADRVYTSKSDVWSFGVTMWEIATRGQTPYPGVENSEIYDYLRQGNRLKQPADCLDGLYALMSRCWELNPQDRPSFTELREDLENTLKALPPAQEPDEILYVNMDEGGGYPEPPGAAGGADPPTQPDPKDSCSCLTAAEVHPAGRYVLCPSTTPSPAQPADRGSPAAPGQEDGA
Put plainly: HTRF KinEASE-TK biochemical potency assay, AXL. Set-up: purchased Invitrogen. Particulars: 5 nM AXL, 700 μM ATP, 800 nM TK Substrate-biotin. The method, boiled down: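 Recombinant human kinase preincubated 1 h at RT with compound, then reacted 2 h at RT with 800 nM biotin-TK substrate and 700 μM ATP (final; 5 nM AXL, 1 nM TYRO3 or MER) in HEPES pH 7.4, MgCl2, BSA, DTT, 1% DMSO. HTRF 665/620 ratio read; percent activity versus DMSO and pre-quenched controls.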
A general note: TR-FRET usually uses a lanthanide donor and a delayed reading to cut background.

The target of assay [2] is T1, Axl. The assay can be described thus: Axl NanoBRET intracellular kinase assay (intracellular binding, Cell Binding). Further details: host or cells: HEK-293. Particulars: HEK-293 cells transfected with Axl-NanoLuc fusion vector; 0.35 μM K-5 NanoBRET tracer. In short, it runs like this: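 Intracellular binding measured as loss of BRET (610 nm/450 nm) when compounds displace 0.35 μM K-5 tracer from Axl-NanoLuc in transfected HEK-293 cells.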
On the technique in general: BRET reads energy transfer from a luciferase to a nearby fluorophore.

By IC50 is commonly meant the concentration that inhibits the measured activity by half. The low end stands for greater potency, the high end for weaker potency. For `C[C@@H]1CCCN1C1(C)CCc2ccc(-c3cnc4[nH]nc(-c5ccc(S(=O)(=O)C6CC6)c(F)c5)c4c3)cc2CC1` (stereo partly drawn) [Example 25, (2R)-1-(2-{3-[4-(Cyclopropanesulfonyl)-3-fluorophenyl]-1H-pyrazolo[3,4-b]pyridin-5-yl}-7-methyl-6,7,8,9-tetrahydro-5H-benzo[7]annulen-7-yl)-2-methylpyrrolidine], the IC50 at Axl [1] and at Axl [2] was less than 100 nM each time.

Consider `CC(C)S(=O)(=O)c1ccc(-c2n[nH]c3ncc(-c4ccc5c(c4)CC[C@@H](N4CCCC4)CC5)cc23)cc1` [Example 42, (S)-3-(4-(Isopropylsulfonyl)phenyl)-5-(7-(pyrrolidin-1-yl)-6,7,8,9-tetrahydro-5H-benzo[7]annulen-2-yl)-1H-pyrazolo[3,4-b]pyridine], for which the IC50 against Axl [1] and on Axl [2] was less than 100 nM throughout.

In the case of `C[C@@H]1CCCN1C1CCc2ccc(-c3cnc4[nH]nc(-c5ccc(S(N)(=O)=O)c(Cl)c5)c4c3)cc2CC1` (stereo partly drawn) [Example 94, 2-Chloro-4-(5-(7-((R)-2-methylpyrrolidin-1-yl)-6,7,8,9-tetrahydro-5H-benzo[7]annulen-2-yl)-1H-pyrazolo[3,4-b]pyridin-3-yl)benzenesulfonamide], the IC50 against Axl [1] and at Axl [2] was less than 100 nM each time.

As to `C[C@@H]1CCCN1C1(C)CCc2ccc(-c3cnc4[nH]nc(-c5ccc(S(=O)(=O)C6CCCC6)cc5)c4c3)cc2CC1` (stereo partly drawn) [Example 45, 3-(4-(Cyclopentylsulfonyl)phenyl)-5-(7-methyl-7-((R)-2-methylpyrrolidin-1-yl)-6,7,8,9-tetrahydro-5H-benzo[7]annulen-2-yl)-1H-pyrazolo[3,4-b]pyridine], the IC50 was less than 100 nM at Axl [1] and 100 to 1000 nM on Axl [2].

Take `CC1(N[C@H]2CCOC2)CCc2ccc(-c3cnc4[nH]nc(-c5ccc(S(=O)(=O)C6CC6)cc5)c4c3)cc2CC1` (stereo partly drawn) [Example 115, (3S)-N-(2-{3-[4-(Cyclopropanesulfonyl)phenyl]-1H-pyrazolo[3,4-b]pyridin-5-yl}-7-methyl-6,7,8,9-tetrahydro-5H-benzo[7]annulen-7-yl)oxolan-3-amine]: the IC50 is less than 100 nM on Axl [1] and 100 to 1000 nM on Axl [2].

With `Cc1cc(-c2n[nH]c3ncc(-c4ccc5c(c4)CC[C@@H](N4CCCC4)CC5)cc23)cc(C)c1C(N)=O` [Example 49, 2,6-Dimethyl-4-{5-[(7S)-7-(pyrrolidin-1-yl)-6,7,8,9-tetrahydro-5H-benzo[7]annulen-2-yl]-1H-pyrazolo[3,4-b]pyridin-3-yl}benzamide], the IC50 against Axl [1] and at Axl [2] was less than 100 nM in each case.

On to `c1cc2c(cc1-c1cnc3[nH]nc(-c4ccc(N5C[C@H]6C[C@@H]5CO6)cc4)c3c1)CC[C@@H](N1C3COCC1C3)CC2` [Example 126, (1R,4R)-5-(4-{5-[(7S)-7-{3-oxa-6-azabicyclo[3.1.1]heptan-6-yl}-6,7,8,9-tetrahydro-5H-benzo[7]annulen-2-yl]-2H-pyrazolo[3,4-b]pyridin-3-yl}phenyl)-2-oxa-5-azabicyclo[2.2.1]heptane], for which the IC50 is less than 100 nM against Axl [1] and 100 to 1000 nM at Axl [2].

In the case of `C[C@@H]1CCCN1C1(C)CCc2ccc(-c3cnc4[nH]nc(-c5ccc(C(=O)N6CCCC6)cc5)c4c3)cc2CC1` (stereo partly drawn) [Example 118, (2R)-2-Methyl-1-(7-methyl-2-{3-[4-(pyrrolidine-1-carbonyl)phenyl]-1H-pyrazolo[3,4-b]pyridin-5-yl}-6,7,8,9-tetrahydro-5H-benzo[7]annulen-7-yl)pyrrolidine], the IC50 against Axl [1] and on Axl [2] was less than 100 nM in each case.

On to `CCS(=O)(=O)c1ccc(-c2n[nH]c3ncc(-c4ccc5c(c4)CC[C@@H](N4CCCC4)CC5)cc23)cc1` [Example 41, (S)-3-(4-(Ethylsulfonyl)phenyl)-5-(7-(pyrrolidin-1-yl)-6,7,8,9-tetrahydro-5H-benzo[7]annulen-2-yl)-1H-pyrazolo[3,4-b]pyridine], for which the IC50 on Axl [1] and at Axl [2] was less than 100 nM throughout.

Turning to `CS(=O)(=O)c1ccc(-c2n[nH]c3ncc(-c4ccc5c(c4)CCN(C4CCCC4)CC5)cc23)cc1` [Example 30, 3-Cyclopentyl-7-(3-(4-(methylsulfonyl)phenyl)-1H-pyrazolo[3,4-b]pyridin-5-yl)-2,3,4,5-tetrahydro-1H-benzo[d]azepine], the IC50 at Axl [1] was less than 100 nM; on Axl [2] it was 100 to 1000 nM.

As for `Cc1cc(-c2n[nH]c3ncc(-c4ccc5c(c4)CC[C@@H](N4CCCC4)CC5)cc23)cc(C)c1C(=O)N1CCNCC1` [Example 55, 1-(2,6-Dimethyl-4-{5-[(7S)-7-(pyrrolidin-1-yl)-6,7,8,9-tetrahydro-5H-benzo[7]annulen-2-yl]-1H-pyrazolo[3,4-b]pyridin-3-yl}benzoyl)piperazine], the IC50 against Axl [1] and at Axl [2] was less than 100 nM in each case.

With `C[C@@H]1CCCN1C1CCc2ccc(-c3cnc4[nH]nc(-c5ccc(S(=O)(=O)C6CC6)cc5)c4c3)cc2C(C)(C)C1` (stereo partly drawn) [Example 109, (2R)-1-(2-{3-[4-(Cyclopropanesulfonyl)phenyl]-1H-pyrazolo[3,4-b]pyridin-5-yl}-9,9-dimethyl-6,7,8,9-tetrahydro-5H-benzo[7]annulen-7-yl)-2-methylpyrrolidine], the IC50 at Axl [1] and at Axl [2] was less than 100 nM throughout.

On to `C[C@@H]1CCCN1C1(C)CCc2ccc(-c3cnc4[nH]cc(-c5ccc(S(=O)(=O)C6CC6)cc5)c4c3)cc2CC1` (stereo partly drawn) [Example 105, (2R)-1-(2-{3-[4-(Cyclopropanesulfonyl)phenyl]-1H-pyrrolo[2,3-b]pyridin-5-yl}-7-methyl-6,7,8,9-tetrahydro-5H-benzo[7]annulen-7-yl)-2-methylpyrrolidine], for which the IC50 on Axl [1] and on Axl [2] was less than 100 nM throughout.

On to `COc1cc(-c2n[nH]c3ncc(-c4ccc5c(c4)CCC(C)(N4CCC[C@H]4C)CC5)cc23)ccc1C(N)=O` (stereo partly drawn) [Example 53, 2-Methoxy-4-(5-(7-methyl-7-((R)-2-methylpyrrolidin-1-yl)-6,7,8,9-tetrahydro-5H-benzo[7]annulen-2-yl)-1H-pyrazolo[3,4-b]pyridin-3-yl)benzamide], for which the IC50 against Axl [1] and on Axl [2] was less than 100 nM throughout.

As to `O=C1OCCN1c1ccc(-c2n[nH]c3ncc(-c4ccc5c(c4)CC[C@@H](N4C6COCC4C6)CC5)cc23)cc1` [Example 121, 3-(4-{5-[(7S)-7-{3-oxa-6-azabicyclo[3.1.1]heptan-6-yl}-6,7,8,9-tetrahydro-5H-benzo[7]annulen-2-yl]-2H-pyrazolo[3,4-b]pyridin-3-yl}phenyl)-1,3-oxazolidin-2-one], the IC50 at Axl [1] and at Axl [2] was less than 100 nM throughout.

In the case of `CCS(=N)(=O)c1ccc(-c2n[nH]c3ncc(-c4ccc5c(c4)CCC(C)(N4CCC[C@H]4C)CC5)cc23)cc1` (stereo partly drawn) [Example 100, Ethyl(imino)[4-(5-{7-methyl-7-[(2R)-2-methylpyrrolidin-1-yl]-6,7,8,9-tetrahydro-5H-benzo[7]annulen-2-yl}-1H-pyrazolo[3,4-b]pyridin-3-yl)phenyl]-λ^6-sulfanone], the IC50 is less than 100 nM against Axl [1] and 100 to 1000 nM on Axl [2].

As for `Cc1cc(-c2n[nH]c3ncc(-c4ccc5c(c4)CC[C@@H](N4CCCC4)CC5)cc23)cc(Cl)c1C(=O)N1CCNCC1` [Example 56, 1-(2-Chloro-6-methyl-4-{5-[(7S)-7-(pyrrolidin-1-yl)-6,7,8,9-tetrahydro-5H-benzo[7]annulen-2-yl]-1H-pyrazolo[3,4-b]pyridin-3-yl}benzoyl)piperazine], the IC50 against Axl [1] and at Axl [2] was less than 100 nM throughout.

As for `CC(C)(C)S(=O)(=O)c1ccc(-c2n[nH]c3ncc(-c4ccc5c(c4)CC[C@@H](N4C6COCC4C6)CC5)cc23)cc1` [Example 124, 6-[(7S)-2-{3-[4-(2-methylpropane-2-sulfonyl)phenyl]-2H-pyrazolo[3,4-b]pyridin-5-yl}-6,7,8,9-tetrahydro-5H-benzo[7]annulen-7-yl]-3-oxa-6-azabicyclo[3.1.1]heptane], the IC50 on Axl [1] and on Axl [2] was less than 100 nM each time.

With `COCCOc1ccc(-c2n[nH]c3ncc(-c4ccc5c(c4)CC[C@@H](N4C6COCC4C6)CC5)cc23)cc1` [Example 123, 6-[(7S)-2-{3-[4-(2-methoxyethoxy)phenyl]-2H-pyrazolo[3,4-b]pyridin-5-yl}-6,7,8,9-tetrahydro-5H-benzo[7]annulen-7-yl]-3-oxa-6-azabicyclo[3.1.1]heptane], the IC50 against Axl [1] and on Axl [2] was less than 100 nM throughout.
